Assay [1] deals with Carbonic anhydrase 1 (Homo sapiens, UniProt P00915). Kind of assay: Binding affinity to human carbonic anhydrase 1 by stopped flow CO2 hydration method.
The target in assay [2] is Carbonic anhydrase 12 (Homo sapiens, UniProt O43570). Kind of assay: Binding affinity to human carbonic anhydrase 12 by stopped flow CO2 hydration method.
Assay [3] has as its target Carbonic anhydrase 9 (Homo sapiens, UniProt Q16790). In words: Binding affinity to human carbonic anhydrase 9 by stopped flow CO2 hydration method.
Assay [4] has as its target Carbonic anhydrase 2 (Homo sapiens, UniProt P00918). Kind of assay: Binding affinity to human carbonic anhydrase 2 by stopped flow CO2 hydration method.

In general, Ki refers to a dissociation constant, usually derived from enzyme kinetics or from competition with a known ligand. The low end stands for a stronger hold on the target, the high end for a looser hold on the target.

Sequence of Carbonic anhydrase 1 (P00915 whole entry): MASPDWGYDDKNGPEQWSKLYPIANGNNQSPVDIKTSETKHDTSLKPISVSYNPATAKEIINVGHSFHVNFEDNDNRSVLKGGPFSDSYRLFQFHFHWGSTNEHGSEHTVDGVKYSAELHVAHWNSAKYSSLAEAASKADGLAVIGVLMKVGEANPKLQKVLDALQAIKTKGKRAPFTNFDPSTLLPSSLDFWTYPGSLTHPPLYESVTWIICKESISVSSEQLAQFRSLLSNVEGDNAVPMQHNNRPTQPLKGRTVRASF
Sequence of Carbonic anhydrase 12 (O43570 whole entry): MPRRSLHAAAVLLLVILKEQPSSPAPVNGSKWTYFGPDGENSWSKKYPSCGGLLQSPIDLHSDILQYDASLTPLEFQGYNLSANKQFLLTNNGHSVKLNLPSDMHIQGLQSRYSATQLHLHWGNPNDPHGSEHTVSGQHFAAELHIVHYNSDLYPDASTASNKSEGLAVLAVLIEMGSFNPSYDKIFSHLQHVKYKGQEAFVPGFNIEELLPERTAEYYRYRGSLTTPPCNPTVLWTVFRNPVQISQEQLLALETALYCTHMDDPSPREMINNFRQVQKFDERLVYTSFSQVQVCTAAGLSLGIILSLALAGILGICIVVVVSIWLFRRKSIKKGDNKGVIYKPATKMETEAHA

In the case of `Cc1c(CC(=O)O)c(=O)oc2cc3occ(-c4ccc(F)cc4)c3cc12`, the Ki in assay [1] was above 10 µM; in assay [2], 7.4 nM; in assay [3], 17.7 nM; in assay [4] it was above 10 µM.

With `COC(=O)Cc1c(C)c2ccc(OCC(=O)c3ccc(C)cc3)cc2oc1=O`, the figures for the Ki in assay [1], in assay [3] and in assay [4] were above 10 µM, 123 nM and above 10 µM, respectively.

In the case of `COC(=O)Cc1c(C)c2ccc(OCC(=O)c3ccc(Cl)cc3)cc2oc1=O`, the Ki in assay [1] is above 10 µM; in assay [3], 23.6 nM; in assay [4], above 10 µM.

Turning to `Cc1ccc(-c2coc3cc4oc(=O)c(CC(=O)Nc5ccc(S(N)(=O)=O)cc5)c(C)c4cc23)cc1`, the Ki stood at 7.07 µM in assay [1], 91.6 nM in assay [3] and 0.56 µM in assay [4].

`Cc1c(CC(=O)Nc2ccc(S(N)(=O)=O)cc2)c(=O)oc2cc3occ(-c4ccccc4)c3cc12`: the Ki came to 7.02 µM in assay [1], 16.5 nM in assay [3] and 0.0466 µM in assay [4].

In the case of `COC(=O)Cc1c(C)c2ccc(OCC(=O)c3ccccc3)cc2oc1=O`, the Ki was above 10 µM in assay [1], 89.7 nM in assay [3] and above 10 µM in assay [4].

Take `Cc1c(CC(=O)O)c(=O)oc2cc3occ(-c4ccc(Cl)cc4)c3cc12`: the Ki is above 10 µM in assay [1], 94.7 nM in assay [3] and above 10 µM in assay [4].

As to `Cc1c(CC(=O)O)c(=O)oc2cc3occ(-c4ccccc4)c3cc12`, the Ki is above 10 µM in assay [1], 9.4 nM in assay [2], 17.5 nM in assay [3] and above 10 µM in assay [4].

Regarding `Cc1ccc(-c2coc3cc4oc(=O)c(CC(=O)O)c(C)c4cc23)cc1`, the Ki is above 10 µM in assay [1], 23 nM in assay [3] and above 10 µM in assay [4].

Take `COC(=O)Cc1c(C)c2ccc(OCC(=O)c3ccc(F)cc3)cc2oc1=O`: the Ki is above 10 µM in assay [1], 84.7 nM in assay [3] and above 10 µM in assay [4].

With `Cc1c(CC(=O)Nc2ccc(S(N)(=O)=O)cc2)c(=O)oc2cc3occ(-c4ccc(Cl)cc4)c3cc12`, the values for the Ki in assay [1], in assay [3] and in assay [4] were 6.83 µM, 17.8 nM and 0.0551 µM, respectively.

Turning to `Cc1c(CC(=O)Nc2ccc(S(N)(=O)=O)cc2)c(=O)oc2cc3occ(-c4ccc(F)cc4)c3cc12`, the Ki turned out to be 7.15 µM in assay [1], 108 nM in assay [3] and 0.0795 µM in assay [4].

These data come from ChEMBL document CHEMBL4145667, “Targeting Tumor Associated Carbonic Anhydrases IX and XII: Highly Isozyme Selective Coumarin and Psoralen Inhibitors” (ACS Med Chem Lett, 2018).
